Reference: ChEMBL document CHEMBL1132784, “Dibasic inhibitors of human mast cell tryptase. Part 2: structure-activity relationships and requirements for potent activity” (Bioorg Med Chem Lett, 2000)

Tests used:
[1] = molecular target: Plasminogen (Homo sapiens, UniProt P00747); assay: Compound was evaluated for its inhibitory potency against plasmin
[2] = molecular target: Tryptase (Homo sapiens, UniProt Q9BZJ3+Q15661+Q9NRR2); assay: Evaluated for its inhibitory potency against tryptase; assay type: protein assay
[3] = molecular target: Prothrombin (Homo sapiens, UniProt P00734); assay: Compound was evaluated for its inhibitory potency against thrombin
[4] = molecular target: Serine protease 1 (Homo sapiens, UniProt P07477); assay: Compound was evaluated for its inhibitory potency against trypsin
Chain of Serine protease 1 (P07477 whole entry): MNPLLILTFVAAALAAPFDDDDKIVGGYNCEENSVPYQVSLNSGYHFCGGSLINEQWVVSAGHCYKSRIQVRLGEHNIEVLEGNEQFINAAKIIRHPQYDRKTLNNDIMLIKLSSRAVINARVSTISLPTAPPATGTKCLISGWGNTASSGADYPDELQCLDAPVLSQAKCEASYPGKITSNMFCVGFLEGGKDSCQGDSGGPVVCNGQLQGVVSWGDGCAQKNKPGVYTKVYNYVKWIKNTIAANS

Chain of Plasminogen (P00747 97-580 limits assumed): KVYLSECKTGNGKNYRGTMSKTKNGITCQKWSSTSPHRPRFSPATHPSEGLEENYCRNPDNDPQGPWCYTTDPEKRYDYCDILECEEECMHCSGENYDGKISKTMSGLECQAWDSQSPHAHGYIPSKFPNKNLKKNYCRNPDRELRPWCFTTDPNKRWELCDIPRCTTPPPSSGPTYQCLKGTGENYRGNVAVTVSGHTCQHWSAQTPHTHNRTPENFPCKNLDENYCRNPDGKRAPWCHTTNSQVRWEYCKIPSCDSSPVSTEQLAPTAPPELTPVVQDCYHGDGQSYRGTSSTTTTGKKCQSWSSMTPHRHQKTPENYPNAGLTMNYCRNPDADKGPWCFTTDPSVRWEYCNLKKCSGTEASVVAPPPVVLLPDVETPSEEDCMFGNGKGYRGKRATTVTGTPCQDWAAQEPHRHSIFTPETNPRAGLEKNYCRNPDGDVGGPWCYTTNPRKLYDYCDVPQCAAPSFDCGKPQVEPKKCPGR
Chain of Plasminogen (P00747 581-810 limits assumed): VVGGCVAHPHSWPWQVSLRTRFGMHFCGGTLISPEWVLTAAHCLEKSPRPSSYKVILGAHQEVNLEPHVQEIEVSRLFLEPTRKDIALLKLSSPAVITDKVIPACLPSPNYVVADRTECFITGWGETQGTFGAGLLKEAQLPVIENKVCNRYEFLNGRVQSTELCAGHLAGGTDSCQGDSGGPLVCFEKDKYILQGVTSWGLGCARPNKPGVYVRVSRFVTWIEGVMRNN

Ki [1] [µM] | Ki [2] [µM] | Ki [3] [µM] | Ki [4] [µM] | SMILES
> 1000 | 0.004 | > 1000 | 132 | N=C(N)Nc1ccc(CNC(=O)N2CCN(C(=O)O[C@H]3CCC[C@@H](OC(=O)N4CCN(C(=O)NCCCCN)CC4)CCC3)CC2)cc1
> 1000 | 0.0004 | > 1000 | 17 | N=C(N)Nc1ccc(CNC(=O)N2CCN(C(=O)OCc3ccc(COC(=O)N4CCN(C(=O)NCc5ccc(NC(=N)N)cc5)CC4)cc3)CC2)cc1
> 1000 | 6 | > 1000 | > 1000 | CNCc1ccc(CNC(=O)N2CCN(C(=O)O[C@H]3CCC[C@@H](OC(=O)N4CCN(C(=O)NCc5ccc(CNC)cc5)CC4)CCC3)CC2)cc1
> 1000 | 0.0005 | > 1000 | 129 | N=C(N)Nc1ccc(CNC(=O)N2CCN(C(=O)O[C@H]3CCC[C@@H](OC(=O)N4CCN(C(=O)NCCCCCN)CC4)CCC3)CC2)cc1
> 1000 | 0.08 | 741 | 156 | N=C(N)Nc1ccc(CNC(=O)N2CCN(C(=O)O[C@H]3CCC[C@@H](OC(=O)N4CCN(C(=O)CCSc5ccncc5)CC4)CCC3)CC2)cc1
> 1000 | 0.0005 | > 1000 | 29 | N=C(N)Nc1ccc(CNC(=O)N2CCN(C(=O)CCCCCCCC(=O)N3CCN(C(=O)NCc4ccc(NC(=N)N)cc4)CC3)CC2)cc1

Further lines, the molecule ahead of its results:

SMILES | Ki [1] [µM] | Ki [2] [µM] | Ki [3] [µM] | Ki [4] [µM]
N=C(N)Nc1ccc(CNC(=O)N2CCN(C(=O)O[C@H]3CCC[C@@H](OC(=O)N4CCN(C(=O)CCCCCn5ccnc5)CC4)CCC3)CC2)cc1 | > 1000 | 0.03 | > 1000 | 171
N=C(N)N1CCC(CCC(=O)N2CCN(C(=O)O[C@H]3CCC[C@@H](OC(=O)N4CCN(C(=O)CCC5CCN(C(=N)N)CC5)CC4)CCC3)CC2)CC1 | > 1000 | 0.002 | 213 | 171
NCC12CCC(CNC(=O)N3CCN(C(=O)O[C@H]4CCC[C@@H](OC(=O)N5CCN(C(=O)NCC67CCC(CN)(CC6)CC7)CC5)CCC4)CC3)(CC1)CC2 | > 1000 | 0.3 | > 1000 | 95
N=C(N)Nc1ccc(CNC(=O)N2CCN(C(=O)O[C@H]3CCC[C@@H](OC(=O)N4CCN(C(=O)CCCn5ccnc5)CC4)CCC3)CC2)cc1 | > 1000 | > 1000 | > 1000 | 158
N=C(N)N1CCC(CNC(=O)N2CCN(C(=O)O[C@H]3CCC[C@@H](OC(=O)N4CCN(C(=O)NCC5CCN(C(=N)N)CC5)CC4)CCC3)CC2)CC1 | > 1000 | 0.61 | 146 | > 1000
N=C(N)N1CCC(CCNC(=O)N2CCN(C(=O)O[C@H]3CCC[C@@H](OC(=O)N4CCN(C(=O)NCCC5CCN(C(=N)N)CC5)CC4)CCC3)CC2)CC1 | 632 | 0.03 | 112 | 850
NCCCCNC(=O)N1CCN(C(=O)O[C@H]2CCC[C@@H](OC(=O)N3CCN(C(=O)NCCCCN)CC3)CCC2)CC1 | > 1000 | 0.51 | > 1000 | > 1000
O=C(CCCC1CCNCC1)N1CCN(C(=O)O[C@H]2CCC[C@@H](OC(=O)N3CCN(C(=O)CCCC4CCNCC4)CC3)CCC2)CC1 | > 1000 | 0.1 | > 1000 | > 1000
N=C(N)Nc1ccc(CNC(=O)N2CCN(C(=O)O[C@H]3CCC[C@@H](OC(=O)N4CCN(C(=O)NCC5CCNCC5)CC4)CCC3)CC2)cc1 | > 1000 | 0.07 | > 1000 | 148
N=C(N)c1ccc(CCC(=O)N2CCN(C(=O)O[C@H]3CCC[C@@H](OC(=O)N4CCN(C(=O)CCc5ccc(C(=N)N)cc5)CC4)CCC3)CC2)cc1 | 66 | 0.0004 | 29 | 21
